Results as given in publication PMC2949283 (The Biochemical journal, 2009).

Legend:
D74N HuAChE [1] = target: T1, D74N HuAChE (Homo sapiens, UniProt P22303, D105N); conditions: D74N HuAChE vs wild type; cited from earlier work
Wild Type HuAChE = Wild Type HuAChE (Homo sapiens, UniProt P22303); test: HuAChE inhibition kinetics; type: biochemical; conditions: Wild Type HuAChE
W86A HuAChE = W86A HuAChE (Homo sapiens, UniProt P22303, W117A); test: HuAChE inhibition kinetics; type: biochemical; conditions: W86A HuAChE
W86F HuAChE = W86F HuAChE (Homo sapiens, UniProt P22303, W117F); test: HuAChE inhibition kinetics; type: biochemical; conditions: W86F HuAChE
Y133A HuAChE = Y133A HuAChE (Homo sapiens, UniProt P22303, Y164A); test: HuAChE inhibition kinetics; type: biochemical; conditions: Y133A HuAChE
Y337A HuAChE = Y337A HuAChE (Homo sapiens, UniProt P22303, Y368A); test: HuAChE inhibition kinetics; type: biochemical; conditions: Y337A HuAChE
Y337F HuAChE = Y337F HuAChE (Homo sapiens, UniProt P22303, Y368F); test: HuAChE inhibition kinetics; type: biochemical; conditions: Y337F HuAChE
F338A HuAChE = F338A HuAChE (Homo sapiens, UniProt P22303, F369A); test: HuAChE inhibition kinetics; type: biochemical; conditions: F338A HuAChE
Y133F HuAChE = Y133F HuAChE (Homo sapiens, UniProt P22303, Y164F); test: HuAChE inhibition kinetics; type: biochemical; conditions: Y133F HuAChE
E202A HuAChE = E202A HuAChE (Homo sapiens, UniProt P22303, E233A); test: HuAChE inhibition kinetics; type: biochemical; conditions: E202A HuAChE
E202Q HuAChE = E202Q HuAChE (Homo sapiens, UniProt P22303, E233Q); test: HuAChE inhibition kinetics; type: biochemical; conditions: E202Q HuAChE
E450A HuAChE = E450A HuAChE (Homo sapiens, UniProt P22303, E481A); test: HuAChE inhibition kinetics; type: biochemical; conditions: E450A HuAChE
G122A HuAChE = G122A HuAChE (Homo sapiens, UniProt P22303, G153A); test: HuAChE inhibition kinetics; type: biochemical
F295A HuAChE = F295A HuAChE (Homo sapiens, UniProt P22303, F326A); test: HuAChE inhibition kinetics; type: biochemical; conditions: F295A HuAChE
F297A HuAChE = F297A HuAChE (Homo sapiens, UniProt P22303, F328A); test: HuAChE inhibition kinetics; type: biochemical; conditions: F297A HuAChE
D74N HuAChE [2] = target: T1, D74N HuAChE; test: HuAChE inhibition kinetics; type: biochemical; conditions: D74N HuAChE
Y124A HuAChE = Y124A HuAChE (Homo sapiens, UniProt P22303, Y155A); test: HuAChE inhibition kinetics; type: biochemical
W286A HuAChE = W286A HuAChE (Homo sapiens, UniProt P22303, W317A); test: HuAChE inhibition kinetics; type: biochemical; conditions: W286A HuAChE
Y341A HuAChE = Y341A HuAChE (Homo sapiens, UniProt P22303, Y372A); test: HuAChE inhibition kinetics; type: biochemical; conditions: Y341A HuAChE
F295A/F338A HuAChE = F295A/F338A HuAChE (Homo sapiens, UniProt P22303, F326A/F369A); test: HuAChE inhibition kinetics; type: biochemical; conditions: F295A/F338A HuAChE
F295A/F338A/V407F HuAChE = F295A/F338A/V407F HuAChE (Homo sapiens, UniProt P22303, F326A/F369A/V438F); test: HuAChE inhibition kinetics; type: biochemical; conditions: F295A/F338A/V407F HuAChE
Y72N/Y124Q/W286A HuAChE = Y72N/Y124Q/W286A HuAChE (Homo sapiens, UniProt P22303, W317A/Y103N/Y155Q); test: HuAChE inhibition kinetics; type: biochemical
F295L/F297V/Y337A HuAChE = F295L/F297V/Y337A HuAChE (Homo sapiens, UniProt P22303, F326L/F328V/Y368A); test: HuAChE inhibition kinetics; type: biochemical; conditions: F295L/F297V/Y337A HuAChE
[3] = target: Y72N/Y124Q/W286A/ F295L/F297V/Y337A HuAChE (Homo sapiens, UniProt P22303, F326L/F328V/W317A/Y103N/Y155Q/Y368A); test: HuAChE inhibition kinetics; type: biochemical; conditions: Y72N/Y124Q/W286A/F295L/F297V/Y337A HuAChE
HuBChE-Wild Type = HuBChE-Wild Type (Homo sapiens, UniProt P06276); test: HuBChE inhibition kinetics; type: biochemical; conditions: HuBChE-Wild Type
W86A/Y337A HuAChE = W86A/Y337A HuAChE (Homo sapiens, UniProt P22303, W117A/Y368A); test: biochemical; type: biochemical
Y72N HuAChE = Y72N HuAChE (Homo sapiens, UniProt P22303, Y103N); test: HuAChE inhibition kinetics; type: biochemical; conditions: Y72N HuAChE
F295L/F297V HuAChE = F295L/F297V HuAChE (Homo sapiens, UniProt P22303, F326L/F328V); test: HuAChE inhibition kinetics; type: biochemical; conditions: F295L/F297V HuAChE
F295A/F297A HuAChE = F295A/F297A HuAChE (Homo sapiens, UniProt P22303, F326A/F328A); test: HuAChE inhibition kinetics; type: biochemical
[4] = target: Y72N/Y124Q/W286A/ F295L/F297V/Y337A/ V407F HuAChE (Homo sapiens, UniProt P22303, F326L/F328V/V438F/W317A/Y103N/Y155Q/Y368A); test: HuAChE inhibition kinetics; type: biochemical; conditions: Y72N/Y124Q/W286A/F295L/F297V/Y337A/V407F HuAChE

Sequence of W286A HuAChE (P22303 32-614 W317A): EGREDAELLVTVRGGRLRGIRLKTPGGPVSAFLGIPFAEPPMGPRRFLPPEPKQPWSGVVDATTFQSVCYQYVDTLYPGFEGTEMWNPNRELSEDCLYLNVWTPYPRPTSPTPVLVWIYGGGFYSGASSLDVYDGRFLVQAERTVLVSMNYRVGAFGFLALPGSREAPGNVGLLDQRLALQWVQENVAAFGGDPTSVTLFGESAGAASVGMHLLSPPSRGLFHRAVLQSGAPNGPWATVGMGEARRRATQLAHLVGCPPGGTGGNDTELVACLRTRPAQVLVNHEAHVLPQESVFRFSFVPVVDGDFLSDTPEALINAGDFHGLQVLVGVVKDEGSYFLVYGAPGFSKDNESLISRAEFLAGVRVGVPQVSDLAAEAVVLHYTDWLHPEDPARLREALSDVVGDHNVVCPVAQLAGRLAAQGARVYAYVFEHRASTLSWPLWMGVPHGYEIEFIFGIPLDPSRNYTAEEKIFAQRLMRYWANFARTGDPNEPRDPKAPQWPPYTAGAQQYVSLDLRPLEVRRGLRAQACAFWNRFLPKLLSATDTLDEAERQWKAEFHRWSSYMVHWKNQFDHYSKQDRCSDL
Sequence of F295A/F338A HuAChE (P22303 32-614 F326A/F369A): as the sequence (P22303 32-614 W317A) above, with A286W, F295A, F338A counted along it
Sequence of Y124A HuAChE (P22303 32-614 Y155A): as the sequence (P22303 32-614 W317A) above, with Y124A, A286W counted along it
T1 sequence (P22303 32-614 D105N): as the sequence (P22303 32-614 W317A) above, with D74N, A286W counted along it
Sequence of Y72N/Y124Q/W286A/ F295L/F297V/Y337A HuAChE (P22303 32-614 Y103N/Y155Q/W317A/F326L/F328V/Y368A): as the sequence (P22303 32-614 W317A) above, with Y72N, Y124Q, F295L, F297V, Y337A counted along it
Sequence of E202A HuAChE (P22303 32-614 E233A): as the sequence (P22303 32-614 W317A) above, with E202A, A286W counted along it
Sequence of F297A HuAChE (P22303 32-614 F328A): as the sequence (P22303 32-614 W317A) above, with A286W, F297A counted along it
Sequence of Y341A HuAChE (P22303 32-614 Y372A): as the sequence (P22303 32-614 W317A) above, with A286W, Y341A counted along it

CC[N+](C)(C)c1cccc(O)c1 [edrophonium]
increase of the dissociation constant (D74N HuAChE [1]): 5 fold

CN(C)C(=O)Oc1ccc[n+](C)c1 [Pyridostigmine, pyridostigmine bromide]
k2, carbamylation rate constant (Wild Type HuAChE): 0.77 ± 0.3 min⁻¹ | k2, carbamylation rate constant (W86A HuAChE): 0.68 ± 0.2 min⁻¹ | k2, carbamylation rate constant (W86F HuAChE): 0.65 ± 0.2 min⁻¹ | k2, carbamylation rate constant (Y133A HuAChE): 1.80 ± 0.3 min⁻¹ | k2, carbamylation rate constant (Y337A HuAChE): 0.80 ± 0.1 min⁻¹ | k2, carbamylation rate constant (Y337F HuAChE): 0.68 ± 0.2 min⁻¹ | k2, carbamylation rate constant (F338A HuAChE): 1.20 ± 0.4 min⁻¹ | k2, carbamylation rate constant (Y133F HuAChE): 0.20 ± 0.04 min⁻¹ | k2, carbamylation rate constant (E202A HuAChE): 0.20 ± 0.05 min⁻¹ | k2, carbamylation rate constant (E202Q HuAChE): 1.00 ± 0.2 min⁻¹ | k2, carbamylation rate constant (E450A HuAChE): 0.15 ± 0.02 min⁻¹ | k2, carbamylation rate constant (G122A HuAChE): 0.12 ± 0.02 min⁻¹ | ki, bimolecular rate constant of carbamylation (G122A HuAChE): 0.76±0.2 × 10^−4 M^−1min^−1 | k2, carbamylation rate constant (F295A HuAChE): 0.17 ± 0.02 min⁻¹ | k2, carbamylation rate constant (F297A HuAChE): 0.64 ± 0.1 min⁻¹ | k2, carbamylation rate constant (D74N HuAChE [2]): 1.0 ± 0.1 min⁻¹ | k2, carbamylation rate constant (Y124A HuAChE): 0.1 ± 0.01 min⁻¹ | ki, bimolecular rate constant of carbamylation (Y124A HuAChE): 13.8±0.4 × 10^−4 M^−1min^−1 | k2, carbamylation rate constant (W286A HuAChE): 1.8 ± 0.5 min⁻¹ | ki, bimolecular rate constant of carbamylation (W286A HuAChE): 14.0±0.6 × 10^−4 M^−1min^−1 | k2, carbamylation rate constant (Y341A HuAChE): 1.0 ± 0.1 min⁻¹ | k2, carbamylation rate constant (F295A/F338A HuAChE): 0.5 ± 0.4 min⁻¹ | ki, bimolecular rate constant of carbamylation (F295A/F338A HuAChE): 0.8±0.5 × 10^−4 M^−1min^−1 | k2, carbamylation rate constant (F295A/F338A/V407F HuAChE): 0.5 ± 0.15 min⁻¹ | k2, carbamylation rate constant (Y72N/Y124Q/W286A HuAChE): 0.80 ± 0.07 min⁻¹ | ki, bimolecular rate constant of carbamylation (Y72N/Y124Q/W286A HuAChE): 9.3±0.8 × 10^−4 M^−1min^−1 | k2, carbamylation rate constant (F295L/F297V/Y337A HuAChE): 0.55 ± 0.09 min⁻¹ | k2, carbamylation rate constant [3]: 0.40 ± 0.1 min⁻¹ | ki, bimolecular rate constant of carbamylation [3]: 0.6±0.1 × 10^−4 M^−1min^−1 | k2, carbamylation rate constant (HuBChE-Wild Type): 0.30 ± 0.03 min⁻¹

CNC(=O)Oc1ccc2c(c1)[C@]1(C)CCN(C)[C@@H]1N2C [(−)-Physostigmine, (−)physostigmine salicylate]
k2, carbamylation rate constant (Wild Type HuAChE): 1.2 ± 0.5 min⁻¹ | k2, carbamylation rate constant (W86A HuAChE): 0.80 ± 0.30 min⁻¹ | k2, carbamylation rate constant (W86F HuAChE): 0.90 ± 0.20 min⁻¹ | k2, carbamylation rate constant (Y133A HuAChE): 0.40 ± 0.02 min⁻¹ | k2, carbamylation rate constant (Y337A HuAChE): 1.10 ± 0.50 min⁻¹ | k2, carbamylation rate constant (Y337F HuAChE): 1.90 ± 0.40 min⁻¹ | k2, carbamylation rate constant (F338A HuAChE): 0.40 ± 0.20 min⁻¹ | k2, carbamylation rate constant (Y133F HuAChE): 0.13 ± 0.01 min⁻¹ | k2, carbamylation rate constant (E202A HuAChE): 0.24 ± 0.05 min⁻¹ | k2, carbamylation rate constant (E202Q HuAChE): 0.80 ± 0.20 min⁻¹ | k2, carbamylation rate constant (E450A HuAChE): 0.15 ± 0.01 min⁻¹ | k2, carbamylation rate constant (F295A HuAChE): 1.60 ± 0.50 min⁻¹ | k2, carbamylation rate constant (F297A HuAChE): 0.60 ± 0.10 min⁻¹ | k2, carbamylation rate constant (D74N HuAChE [2]): 2.40 ± 0.50 min⁻¹ | k2, carbamylation rate constant (Y124A HuAChE): 6.0 ± 1.8 min⁻¹ | ki, bimolecular rate constant of carbamylation (Y124A HuAChE): 150±3 × 10^−4 M^−1min^−1 | k2, carbamylation rate constant (W286A HuAChE): 2.70 ± 0.80 min⁻¹ | ki, bimolecular rate constant of carbamylation (W286A HuAChE): 365±40 × 10^−4 M^−1min^−1 | k2, carbamylation rate constant (Y341A HuAChE): 1.90 ± 0.30 min⁻¹ | k2, carbamylation rate constant (F295A/F338A HuAChE): 4.5 ± 0.9 min⁻¹ | ki, bimolecular rate constant of carbamylation (F295A/F338A HuAChE): 78±19 × 10^−4 M^−1min^−1 | k2, carbamylation rate constant (F295A/F338A/V407F HuAChE): 0.2 ± 0.03 min⁻¹ | k2, carbamylation rate constant (F295L/F297V/Y337A HuAChE): 0.75 ± 0.20 min⁻¹ | k2, carbamylation rate constant [3]: 0.20 ± 0.05 min⁻¹ | ki, bimolecular rate constant of carbamylation [3]: 34±1.2 × 10^−4 M^−1min^−1 | k2, carbamylation rate constant (HuBChE-Wild Type): 0.55 ± 0.05 min⁻¹ | k2, carbamylation rate constant (W86A/Y337A HuAChE): 1.2 ± 0.18 min⁻¹ | ki, bimolecular rate constant of carbamylation (W86A/Y337A HuAChE): 866 ±130 × 10^−4 M^−1min^−1 | k2, carbamylation rate constant (Y72N HuAChE): 0.9 ± 0.14 min⁻¹ | k2, carbamylation rate constant (F295L/F297V HuAChE): 2.0 ± 0.4 min⁻¹ | k2, carbamylation rate constant (F295A/F297A HuAChE): 0.6 ± 0.2 min⁻¹ | k2, carbamylation rate constant [4]: 1.25 ± 0.25 min⁻¹ | ki, bimolecular rate constant of carbamylation [4]: 18±3 × 10^−4 M^−1min^−1
